test system: laboratory animals; test: not given; conditions: even in low dosages, pure form; cited from earlier work

| Compound | toxicity to living creatures (lethality) |
| --- | --- |
| COC[C@H]1OC(=O)c2coc3c2[C@@]1(C)C1=C(C3=O)[C@@H]2CCC(=O)[C@@]2(C)C[C@H]1OC(C)=O [wortmannin, Wortmannin] | often lethal |

test system: purified bovine brain PI 3-kinase; test: Assay of purified PI-3 kinase activity (32P incorporation into phosphatidylinositol, TLC/scintillation); type: biochemical; conditions: at 10 ng/ml
Description: In another, preferred, method, PI 3-kinase was prepared from bovine brain. Two bovine brains (wet weight about 900 g) were obtained from a local slaughterhouse within minutes of slaughter, packed on ice, and homogenized within one hour. Brains were trimmed of excess fat and blood vessels and then homogenized using a Tekmar Tissuemizer (Cincinnati, Ohio) at 4° C. in 20 mM of Tris(pH 8.3) containing 250 mM of sucrose, 6 mM of β-mercaptoethanol, 1 μg/ml of leupeptin, 1 μg/ml of pepstatin A, 0.4 mM of PMSF, and 1 mM of MgCl2.
Following centrifugation for 60 minutes at 10,000 x g, the pH of the supernatant (about 1200 mL) was lowered to 5.75 using dropwise addition of 1M acetic acid at 4° C. After stirring for an additional 15 minutes at 4° C., the solution was centrifuged for 60 minutes at 13,500 x g. The supernatant was discarded. Pellets were resuspended in Buffer A (20 mM of Tris, pH 8.3, containing 6 mM of β-mercaptoethanol, 0.1 mM of ethylene glycol-bis(β-aminoethyl ether) N,N,N',N'-tetraacetic acid (EGTA), 1 μg/mL of leupeptin, 1 μg/mL of pepstatin A, and 1 mM of MgCl2), and loaded onto a Fast Flow Q Sepharose column (300 ml) at a flow rate of 5 mL/min at 4° C. After loading, the column was washed with 3 volumes of Buffer A containing 0.1M of KCl and the kinase was then eluted with a linear gradient of Buffer A/0.1M KCl to Buffer A/0.6M KCl at 3 mL/min over 7 volumes.
Fractions were assayed for PI 3-kinase activity using 10 μL of the fraction and phosphatidylinositol as substrate as described below. PI 4-kinase eluted in the breakthrough; PI 3-kinase eluted at approximately 0.3M of KCl. The PI 3-kinase pool was subjected to a 40% ammonium sulfate precipitation. Following centrifugation (60 minutes at 13,500 x g), pellets were resuspended in Buffer B (10 mM of potassium phosphate, pH 7.4, containing 6 mM of β-mercaptoethanol, 1 μg/mL of leupeptin, 1 μg/mL of pepstatin A, and 1 mM of MgCl2), and loaded onto a 50 mL hydroxylapatite column (Calbiochem, Inc., La Jolla, Calif.) at 2.5 mL/minute. The column was washed with 150 mL Buffer B until the A280 baseline reached zero, and the kinase was then eluted with a linear gradient of 10-320 mM of KH2 PO4 at 1 mL/minute over 450 minutes.
Active fractions were pooled and then loaded at 3 mL/minute onto a MonoS column (8 ml) (Pharmacia, Inc., Piscataway, N.J.) equilibrated in Buffer C (50 mM of MES, pH 6.2, containing 6 mM of β-mercaptoethanol, 0.1 mM of EGTA, 1 μg/mL of leupeptin, 1 μg/mL of pepstatin A, and 1 mM of MgCl2). PI 3-kinase was eluted with a linear gradient of 0-0.4M KCl in Buffer C over 120 minutes. In assaying fractions, two pools of PI 3-kinase activity were routinely found. The bulk of the activity was found in the flow-through, while about 20% of the activity was eluted in the gradient. Although the material in the gradient had considerable PI 4-kinase activity, essentially no PI 4-kinase activity was associated with the PI 3-kinase eluted in the flow-through. Therefore, the MonoS flow-through was concentrated by tangential flow filtration on a Mini-Ultrasette Omega 50 K membrane (Filtron, Inc., Northborough, Mass.) and diluted in Buffer C to lower the conductivity. The material was then reloaded onto the MonoS column using the above conditions. The PI 3-kinase bound to the column during the wash and was eluted in the gradient. Two pools of phosphatidylinositol kinase activity were obtained in the gradient; each was assayed for PI 3-kinase and PI 4-kinase activity.
Pool I from the MonoS column was diluted with Buffer A and chromatographed on MonoQ (1 ml) and eluted with a gradient of 0-0.4M KCl in Buffer A. The final pool was assayed for PI 3-kinase and PI 4-kinase activity.
PI 3-kinase activity was measured as previously described by Matter, W. F., et al., Biochemical and Biophysical Research Communications, 186: 624-631 (1992). […]

| Compound | inhibition vs. PI-3-kinase [%] |
| --- | --- |
| COC[C@H]1OC(=O)c2coc3c2[C@@]1(C)C1=C(C3=O)[C@@H]2CCC(=O)[C@@]2(C)C[C@H]1O [f, 11-desacetyl wortmannin] | 50 |

same assay, conditions: purified bovine brain PI 3-kinase, 10 min preincubation, 20 μM ATP, 3% DMSO

| Compound | IC50 for inhibition of PI-3-kinase [ng/mL] |
| --- | --- |
| CCN(C=C1C(=O)O[C@H](COC)[C@@]2(C)C1=C(O)C(=O)C1=C2[C@H](O)C[C@]2(C)C(=O)CC[C@@H]12)CC [b] | > 10 |
| CCCC(=O)O[C@@H]1C[C@]2(C)C(=O)CC[C@H]2C2=C1[C@]1(C)c3c(coc3C2=O)C(=O)O[C@@H]1COC [h, 11-butyryl-desacetyl-Wortmannin] | 0.4 |
| COC[C@H]1OC(=O)c2coc3c2[C@@]1(C)C1=C(C3=O)[C@@H]2CCC(=O)[C@@]2(C)C[C@H]1O [f, 11-desacetyl wortmannin] | 10 |
| COC[C@H]1OC(=O)c2coc3c2[C@@]1(C)C1=C(C3=O)[C@@H]2CCC(=O)[C@@]2(C)CC1=O [c, 11-dehydro Wortmannin] | 1.6 |
| COC[C@H]1OC(=O)c2coc3c2[C@@]1(C)C1=C(C3=O)[C@@H]2CCC(=O)[C@@]2(C)C[C@H]1OC(=O)CC(C)C [iA, 11-isovaleryl-desacetyl-Wortmannin] | 1.16 |
| COC[C@H]1OC(=O)c2coc3c2[C@@]1(C)C1=C(C3=O)[C@@H]2CCC(=O)[C@@]2(C)C[C@H]1OC(=O)CCl [l, 11-chloroacetyldesacetyl-Wortmannin] | 1.3 |
| C=CC(=O)O[C@@H]1C[C@]2(C)C(=O)CC[C@H]2C2=C1[C@]1(C)c3c(coc3C2=O)C(=O)O[C@@H]1COC [m, 11-acrylyl-desacetyl-wortmannin] | 0.95 |
| CCC(=O)O[C@@H]1C[C@]2(C)[C@@H](O)CC[C@H]2C2=C1[C@]1(C)c3c(coc3C2=O)C(=O)O[C@@H]1COC [e, 11-propionyl-17-hydroxy-desacetyl-dihydro-Wortmannin] | 0.38 |
| COC[C@H]1OC(=O)c2coc3c2[C@@]1(C)C1=C(C3=O)[C@@H]2CCC(=O)[C@@]2(C)C[C@H]1OC(=O)Cc1ccccc1 [n, 11-phenylacetyl-desacetyl-Wortmannin] | 1.53 |
| CCC(=O)O[C@@H]1C[C@]2(C)[C@@H](OC(C)=O)CC[C@H]2C2=C1[C@]1(C)c3c(coc3C2=O)C(=O)O[C@@H]1COC [j, 11-propionyl-17-acetyl-desacetyl-dihydro-Wortmannin] | 56.5 |
| CCCCC(=O)O[C@@H]1C[C@]2(C)C(=O)CC[C@H]2C2=C1[C@]1(C)c3c(coc3C2=O)C(=O)O[C@@H]1COC [i, 11-valeryl-desacetyl-Wortmannin] | 1.2 |
| CCC(=O)O[C@@H]1C[C@]2(C)C(=O)CC[C@H]2C2=C1[C@]1(C)c3c(coc3C2=O)C(=O)O[C@@H]1COC [g, 11-propionyl-desacetyl-Wortmannin] | 0.6 |
| COC[C@H]1OC(=O)c2coc3c2[C@@]1(C)C1=C(C3=O)[C@@H]2CCC(O)[C@@]2(C)C[C@H]1O (stereo partly shown) [d, 11,17-desacetyl-dihydro Wortmannin] | > 10 |
| COC[C@H]1OC(=O)c2coc3c2[C@@]1(C)C1=C(C3=O)[C@@H]2CCC(=O)[C@@]2(C)C[C@H]1OC(=O)CCN(C)C [k, 11-dimethylaminopropionyl-desacetyl-Wortmannin] | 8.6 |

Reference: US5480906A, “Stereochemical Wortmannin derivatives” (priority 1994, dated 1996)
